# Experiments:
# [1] = biological target: Vascular endothelial growth factor receptor 2 (Homo sapiens, UniProt P35968); assay: VEGFR ADP GLO Assay
# Description: Assay Procedure:Step 1. Dispensing inhibitors/controls: Using Echo, dispense 10 nL/well compound serial dilutions in DMSO to columns 1-22 (in 384-well plates) or columns 1-44 (in 1536-well plates). Dilution series=11 pt, 3-fold dilutions. The top compound concentration in the source plate is 4 mM. The top compound concentration in the assay plate is 10 uM. Using Echo, dispense 10 nl/well DMSO to column 23 (in 384-well plates) or columns 45-47 (in 1536-well plates). These wells will serve as negative control wells Using Echo, dispense 10 nl/well 400 uM TAK-593 in DMSO to column 24 (in 384-well plates) or column 48 (in 1536-well plates). The final concentration of TAK-593 in the assay should be 1 uM. These wells will serve as positive control wells.Step 2. Pre-incubation of inhibitors with kinase: Add 2 μL/well 2× kinase solution. Centrifuge at 1000 rpm for 1 min. Incubate at room temperature for 30 min.Step 3. Kinase cascade reaction: Add 2 μL/well 2× substrate/ATP solution to initiate kinase reactions. Centrifuge at 1000 rpm for 1 min. Incubate at room temperature for 180 min.Final concentrations of components in the assay:[VEGFR2]=5 nM;[ATP]=1.2 mM;[Srctide]=1 mg/mL;[DMSO] G; 1%.Step 4. Quench: Add 2 uL/well ADP Glo Reagent+0.05% CHAPS. […] Centrifuge at 1000 rpm for 1 min; Incubate at room temperature for 1 hour; Read Luminescence on a plate reader.
# [2] = biological target: Platelet-derived growth factor receptor beta (Homo sapiens, UniProt P09619); assay: PDGFRβ HTRF Assay
# Platelet-derived growth factor receptor beta, sequence (P09619 whole entry): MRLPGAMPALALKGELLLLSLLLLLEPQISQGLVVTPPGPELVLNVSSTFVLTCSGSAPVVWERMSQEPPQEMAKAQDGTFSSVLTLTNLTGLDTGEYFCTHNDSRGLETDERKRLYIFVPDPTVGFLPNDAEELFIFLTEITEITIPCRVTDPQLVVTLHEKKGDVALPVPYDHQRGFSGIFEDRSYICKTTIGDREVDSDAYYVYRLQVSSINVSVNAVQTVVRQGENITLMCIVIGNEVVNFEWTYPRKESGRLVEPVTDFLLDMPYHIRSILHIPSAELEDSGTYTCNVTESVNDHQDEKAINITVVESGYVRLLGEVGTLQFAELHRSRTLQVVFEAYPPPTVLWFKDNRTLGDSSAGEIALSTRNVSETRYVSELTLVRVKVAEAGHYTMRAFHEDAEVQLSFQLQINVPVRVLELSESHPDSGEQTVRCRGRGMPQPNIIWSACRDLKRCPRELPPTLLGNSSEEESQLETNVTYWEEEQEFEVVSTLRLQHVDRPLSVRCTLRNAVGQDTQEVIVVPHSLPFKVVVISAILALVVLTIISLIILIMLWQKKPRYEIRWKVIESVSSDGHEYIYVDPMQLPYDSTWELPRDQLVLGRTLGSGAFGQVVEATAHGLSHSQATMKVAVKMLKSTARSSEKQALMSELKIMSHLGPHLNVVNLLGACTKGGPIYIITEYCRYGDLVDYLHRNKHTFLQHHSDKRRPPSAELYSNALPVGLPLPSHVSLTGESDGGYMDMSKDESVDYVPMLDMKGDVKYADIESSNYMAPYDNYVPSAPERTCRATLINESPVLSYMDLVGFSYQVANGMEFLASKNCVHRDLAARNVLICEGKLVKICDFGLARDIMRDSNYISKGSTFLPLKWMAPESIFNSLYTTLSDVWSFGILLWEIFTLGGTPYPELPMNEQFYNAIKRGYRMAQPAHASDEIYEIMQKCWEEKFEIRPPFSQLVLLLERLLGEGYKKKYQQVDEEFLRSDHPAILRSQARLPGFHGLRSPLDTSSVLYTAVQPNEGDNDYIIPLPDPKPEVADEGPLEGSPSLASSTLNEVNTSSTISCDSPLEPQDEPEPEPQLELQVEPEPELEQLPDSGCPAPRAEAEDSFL
# Description: Stock Solutions:Assay buffer stock solution, contains 50 mM Hepes, 10 mM MgCl2, 1 mM EGTA, and 0.01% Brij-35, 0.01% ovalbumin, 2 mM DTT at pH 7.5, in molecular biology grade water. […] Store at −80° C. in aliquots.TK-biotin peptide, 0.5 μM in molecular biology grade water, store at −20° C. in aliquots.ATP, 100 mM in molecular biology grade water, store at −20° C. in aliquots.HTRF KinEASE-TK kit: Allow the contents of the Cisbio kit to warm up to room temperature before use. This kit contains HTRF detection buffer, TK-Antibody labeled with Eu3+-cryptate, TK-substrate biotin and Streptavidin-XL665.TK Substrate-Biotin, reconstitute 500 μg lyopholized with 574 μL molecular biology grade water to prepare a 500 μM stock; After use, aliquot the rest and store at −20° C.TK Antibody-Cryptate, reconstitute lyophilized with 1 mL of molecular biology grade water (100× solution) then add 99 mL detection buffer to prepare a ready to use TK-antibody-cryptate solution; the concentration of the TK-antibody-cryptate reagent is not known.
# Vascular endothelial growth factor receptor 2, sequence (P35968 whole entry): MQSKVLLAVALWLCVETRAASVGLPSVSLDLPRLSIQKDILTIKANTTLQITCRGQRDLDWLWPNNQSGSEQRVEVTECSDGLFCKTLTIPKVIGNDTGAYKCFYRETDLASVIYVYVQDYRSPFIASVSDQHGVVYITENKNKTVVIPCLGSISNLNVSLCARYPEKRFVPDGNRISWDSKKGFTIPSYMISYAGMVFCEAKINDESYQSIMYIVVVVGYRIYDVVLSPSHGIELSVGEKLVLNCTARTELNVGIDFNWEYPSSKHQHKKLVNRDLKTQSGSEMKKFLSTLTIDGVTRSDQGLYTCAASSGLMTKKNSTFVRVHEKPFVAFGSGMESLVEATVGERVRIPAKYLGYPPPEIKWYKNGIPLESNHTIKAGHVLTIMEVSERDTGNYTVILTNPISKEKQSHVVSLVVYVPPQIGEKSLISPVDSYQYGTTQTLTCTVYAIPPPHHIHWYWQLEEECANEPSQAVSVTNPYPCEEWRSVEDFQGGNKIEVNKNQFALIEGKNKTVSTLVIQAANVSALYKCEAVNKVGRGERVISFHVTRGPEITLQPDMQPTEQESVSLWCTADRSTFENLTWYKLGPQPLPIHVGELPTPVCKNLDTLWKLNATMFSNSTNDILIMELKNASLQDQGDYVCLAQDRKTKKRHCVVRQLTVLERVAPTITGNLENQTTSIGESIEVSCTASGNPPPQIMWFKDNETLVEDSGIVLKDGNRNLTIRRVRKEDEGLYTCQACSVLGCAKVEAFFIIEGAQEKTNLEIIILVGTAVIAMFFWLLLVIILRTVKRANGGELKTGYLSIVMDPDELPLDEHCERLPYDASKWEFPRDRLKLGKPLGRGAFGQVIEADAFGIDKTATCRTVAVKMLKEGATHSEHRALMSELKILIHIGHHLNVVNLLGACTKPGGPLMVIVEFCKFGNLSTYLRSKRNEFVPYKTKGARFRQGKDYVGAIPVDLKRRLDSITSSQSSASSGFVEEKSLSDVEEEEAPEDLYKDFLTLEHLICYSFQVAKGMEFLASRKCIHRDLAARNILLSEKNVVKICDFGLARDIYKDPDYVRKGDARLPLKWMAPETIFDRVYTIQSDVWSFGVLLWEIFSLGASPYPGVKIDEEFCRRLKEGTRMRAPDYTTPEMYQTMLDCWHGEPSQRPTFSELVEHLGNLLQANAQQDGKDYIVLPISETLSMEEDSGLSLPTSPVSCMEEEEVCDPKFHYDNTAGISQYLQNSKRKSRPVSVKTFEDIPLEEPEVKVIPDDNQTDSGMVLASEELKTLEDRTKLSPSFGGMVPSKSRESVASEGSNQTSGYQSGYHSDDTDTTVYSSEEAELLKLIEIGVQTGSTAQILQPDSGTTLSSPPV
compound,measurement,setting,value
"CCOC1CN(CC(=O)Nc2cnc(C)c(NC(=O)c3cnn4cc(-c5cccnc5OC)sc34)c2)C1 [US20240109917, Example 401]",IC50,[1],> 7500 nM
same,IC50,[2],0.3 nM

# Source: BindingDB's records for patent US20240109917 (Actelion Pharmaceuticals, 2024)
